Measured values published in publication PMC12229529 (Scientific Reports, 2025).
pIC50, pKd: −log10 of the molar value.

Tests used:
PknB (His-PknB) [1] = target: T1, PknB (His-PknB) (Trueperella pyogenes, UniProt A0ABV3NC81); experiment: ATP consumption luminescence; assay type: biochemical; settings: 20 μM ATP, 10 mM MgCl2, 50 mM Tris-HCl pH 7.8, 1 mM DTT, 25 °C, 30 min
T1 sequence (A0ABV3NC81 1-331): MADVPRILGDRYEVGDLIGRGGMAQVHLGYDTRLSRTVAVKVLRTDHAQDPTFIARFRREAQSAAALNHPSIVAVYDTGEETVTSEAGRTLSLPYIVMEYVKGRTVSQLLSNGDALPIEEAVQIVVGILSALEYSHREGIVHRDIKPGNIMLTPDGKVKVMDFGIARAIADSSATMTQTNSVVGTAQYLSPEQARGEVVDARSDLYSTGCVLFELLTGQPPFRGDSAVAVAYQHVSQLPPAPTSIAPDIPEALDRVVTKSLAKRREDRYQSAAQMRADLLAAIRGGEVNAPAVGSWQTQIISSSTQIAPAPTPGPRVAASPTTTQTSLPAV

[2] = target: serine/threonine protein kinase B (PknB); experiment: SPR; assay type: binding, Trueperella pyogenes
PknB (His-PknB) [3] = target: T1, PknB (His-PknB); experiment: SPR; assay type: binding; settings: 1x PBS-P buffer; luteolin 0.3125-10 μmol/L (KD lies above the tested range)

pIC50 (PknB (His-PknB) [1]): 3.66 | pKd [2]: 3.51 | pKd (PknB (His-PknB) [3]): 3.51
SMILES: O=c1cc(-c2ccc(O)c(O)c2)oc2cc(O)cc(O)c12 [luteolin]
